Source: paper PMC11414412, “Design and synthesis new indole-based aromatase/iNOS inhibitors with apoptotic antiproliferative activity” (Frontiers in Chemistry, 2024)
Where two headings read alike, the source gives them in different places.

Experiments:
Bax = Bax activation assay; assay type: cell-based, human; settings: lung (A-549) cancer cells, compound at IC50
Description: Cells were obtained from American Type Culture Collection, cells were grown in RPMI 1640 containing 10% fetal bovine serum at 37°C, stimulated with the compounds to be tested for caspase8, and lysed with Cell Extraction Buffer. This lysate was diluted in Standard Diluent Buffer over the range of the assay and measured for human active caspase-8 content. […]
4.2.7. Bax activation assay
Bring all reagents, except the human Bax-α Standard, to room temperature for at least 30 minutes prior to opening. The human Bax-α Standard solution should not be left at room temperature for more than 10 minutes. All standards, controls and samples should be run in duplicate. Refer to the Assay Layout Sheet to determine the number of wells to be used and put any remaining wells with the desiccant back into the pouch and seal the ziploc. Store unused wells at 4 °C. Pipet 100 μL of Assay Buffer into the S0 (0 pg/mL standard) wells. Pipet 100 μL of Standards #1 through #6 into the appropriate wells. Pipet 100 μL of the Samples into the appropriate wells. Tap the plate gently to mix the contents. Seal the plate and incubate at room temperature on a plate shaker for 1 hour at ~500 rpm. Empty the contents of the wells and wash by adding 400 μL of wash solution to every well. Repeat the wash 4 more times for a total of 5 washes. After the final wash, empty or aspirate the wells and firmly tap the plate on a lint free paper towel to remove any remaining wash buffer.
Pipet 100 μL of yellow Antibody into each well, except the Blank. Seal the plate and incubate at room temperature on a plate shaker for 1 hour at ~500 rpm. Empty the contents of the wells and wash by adding 400 μL of wash solution to every well. Repeat the wash 4 more times for a total of 5 washes. After the final wash, empty or aspirate the wells and firmly tap the plate on a lint free paper towel to remove any remaining wash buffer. Add 100 μL of blue Conjugate to each well, except the Blank. Seal the plate and incubate at room temperature on a plate shaker for 30 minutes […]
Pipet 100 μL of Substrate Solution into each well. Incubate for 30 minutes at room temperature on a plate shaker at ~500 rpm. Pipet 100 μL Stop Solution to each well. Blank the plate reader against the Blank wells, read the optical density at 450 nm. Calculate the average net Optical Density (OD) bound for each standard and sample by subtracting the average Blank OD from the average OD for each standard and sample. Using linear graph paper, plot the Average Net OD for each standard versus Bax concentration in each standard. Approximate a straight line through the points.
The concentration of Bax in the unknowns can be determined by interpolation. […]

Bcl-2 = Bcl-2 inhibition assay; assay type: cell-based, human; settings: lung (A-549) cancer cells, compound at IC50
Description: 4.2.8. Bcl-2 inhibition assay
Mix all reagents thoroughly without foaming before use. Wash the microwells twice with approximately 300 μL Wash Buffer per well with thorough aspiration of microwell contents between washes. Take caution not to scratch the surface of the microwells. After the last wash, empty the wells and tap microwell strips on absorbent pad or paper towel to remove excess Wash Buffer. Use the microwell strips immediately after washing or place upside down on a wet absorbent paper for not longer than 15 minutes. […] Add 100 μL of Sample […]
Diluent in duplicate to all standard wells and to the blank wells. Prepare standard (1:2 dilution) in duplicate ranging from 32 ng/mL to 0.5 ng/mL. Add 100 μL of Sample Diluent, in duplicate, to the blank wells. Add 80 μL of Sample Diluent, in duplicate, to the sample wells. Add 20 μL of each Sample, in duplicate, to the designated wells. Add 50 μL of diluted biotin-conjugate to all wells, including the blank wells. Cover with a plate cover and incubate at room temperature, on a microplate shaker at 100 rpm if available, for 2 hours. Remove plate cover and empty the wells.
Wash microwell strips 3 times as described in step 2. Add 100 μL of diluted Streptavidin-HRP to all wells, including the blank wells. Cover with a plate cover and incubate at room temperature, on a microplate shaker at 100 rpm if available, for 1 hour. Remove plate cover and empty the wells.
Wash microwell strips 3 times as described in step 2. Proceed to the next step. Pipette 100 μl of mixed TMB Substrate Solution to all wells, including the blanks. Incubate the microwell strips at room temperature (18° to 25°C) for about 15 minutes, if available on a rotator set at 100 rpm.
Avoid direct exposure to intense light. The point, at which the substrate reaction is stopped, is often determined by the ELISA reader. Many ELISA readers record absorbance only up to 2.0
O.D. Therefore, the color development within individual microwells must be watched by the person running the assay and the substrate reaction stopped before positive wells are no longer properly detectable. Stop the enzyme reaction by quickly pipetting 100 μL of Stop Solution into each well, including the blank wells. It is important that the Stop Solution is spread quickly and uniformly throughout the microwells to completely inactivate the enzyme. Results must be read immediately after the Stop Solution is added or within one hour i f the microwell strips are stored at 2 - 8°C in the dark. Read absorbance of each microwell on a spectrophotometer using 450 nm as the primary wavelength.

aromatase = settings: read-out: Aromatase inhibition IC50, cited from earlier work

CN[C@@H]1C[C@H]2O[C@@](C)([C@@H]1OC)n1c3ccccc3c3c4c(c5c6ccccc6n2c5c31)C(=O)NC4 [Staurosporine, reference compound]
Bax Conc (Bax): 288 ± 2 pg/mL | Bcl-2 Conc (Bcl-2): 1.00 ng/mL

COc1ccc(S(=O)(=O)NCCc2c(C(c3ccc(O)cc3)c3[nH]c4ccccc4c3CCNS(=O)(=O)c3ccc(OC)cc3)[nH]c3ccccc23)cc1 [compound VIII]
IC50 (aromatase; bis-/tris-indole sulfonamide series, ref Pingaew et al., 2018): 700 nM

N#Cc1c(-c2ccccc2)[nH]c2ccccc12 [compound VII]
IC50 (aromatase; 2-aryl indole series, ref Prior et al., 2017): 1610 nM

O=S(=O)(Cc1ccccc1)Nc1ccc2[nH]ccc2c1 [derivative IX]
IC50 (aromatase; indole aryl sulfonamide series, ref Fantacuzzi et al., 2020): 160 nM
